Experimental data taken from patent publication US10875876B2, “Cyclized sulfamoylarylamide derivatives and the use thereof as medicaments for the treatment of hepatitis B” (priority 2015, dated 2020).
Where two headings read alike, the source gives them in different places.

Experiments:
[1] = system: HBV; assay: anti HBV activity, HepG2.117 cell line, intracellular HBV DNA by realtime PCR; assay type: cell-based; details: Hepatitis B virus, HepG2.117, 72 h
Summary of the method: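 HepG2.117 cells, a Tet-off line that replicates HBV without doxycycline, were induced and then treated in duplicate with serially diluted compound. After 3 days, intracellular HBV DNA was quantified by real-time PCR with an HBV-specific primer set and probe.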

[2] = Cytotoxicity in HepG2 cells, Resazurin assay; details: human, HepG2 cells, TOX-HepG2-4 d CC50 (μM), HepG2 cells incubated for 4 days, viability by Resazurin assay
[3] = HepG2.117 cell line (Tet-off), 3 days of treatment, intracellular HBV DNA quantified by realtime PCR, read-out: HBV-AVE-HepG2.117 EC50

Compound: Cn1cc2c(c1C(=O)Nc1ccc(F)c(F)c1)OCC(C)(C)NS2(=O)=O [Compound 133, N-(3,4-difluorophenyl)-3,3,7-trimethyl-1,1-dioxo-2,4-dihydropyrrolo-[3,4-b][1,4,5]oxathiazepine-6-carboxamide]
- EC50 [1, 3]: 0.011 µM
- CC50 at 4 days [2]: > 25 µM

Compound: C[C@@H](O)[C@@H]1COc2c(cn(C)c2C(=O)Nc2ccc(F)c(F)c2)S(=O)(=O)N1 [Compound 34, (3S)—N-(3,4-difluorophenyl)-3-[(1R)-1-hydroxyethyl]-7-methyl-1,1-dioxo-3,4-dihydro-2H-pyrrolo[3,4-b][1,4,5]oxathiazepine-6-carboxamide]
- EC50 [1, 3]: 0.056 µM
- CC50 at 4 days [2]: > 25 µM

Compound: CC(C)C1CCc2c(cn(C)c2C(=O)Nc2ccnc(C(F)F)c2)S(=O)(=O)N1 (stereo not drawn) [Compound 108, N-[2-(difluoromethyl)-4-pyridyl]-3-isopropyl-7-methyl-1,1-dioxo-2,3,4,5-tetrahydropyrrolo[3,4-f]thiazepine-6-carboxamide]
- EC50 [1, 3]: 0.016 µM
- CC50 at 4 days [2]: > 25 µM

Compound: Cn1cc2c(c1C(=O)Nc1ccc(F)c(C#N)c1)OCC(C)(C)NS2(=O)=O [Compound 135, N-(3-cyano-4-fluoro-phenyl)-3,3,7-trimethyl-1,1-dioxo-2,4-dihydropyrrolo[3,4-b][1,4,5]oxathiazepine-6-carboxamide]
- EC50 [1, 3]: 0.005 µM
- CC50 at 4 days [2]: > 25 µM

Compound: Cc1cccc(CC2(C)COc3c(cn(C)c3C(=O)Nc3ccc(F)c(F)c3)S(=O)(=O)N2)n1 (single isomer, unassigned) [Compound 172a, N-(3,4-difluorophenyl)-3,7-dimethyl-3-[(6-methyl-2-pyridyl)methyl]-1,1-dioxo-2,4-dihydropyrrolo[3,4-b][1,4,5]oxathiazepine-6-carboxamide]
- EC50 [1, 3]: 0.072 µM
- CC50 at 4 days [2]: > 25 µM

Compound: CC(NCC(F)(F)F)C1CCc2c(cn(C)c2C(=O)Nc2cc(F)c(F)c(F)c2)S(=O)(=O)N1 (single isomer, unassigned) [Compound 218a, 7-methyl-1,1-dioxo-3-[1-(2,2,2-trifluoroethylamino)ethyl]-N-(3,4,5-trifluorophenyl)-2,3,4,5-tetrahydropyrrolo[3,4-f]thiazepine-6-carboxamide]
- EC50 [1, 3]: > 0.125 µM
- CC50 at 4 days [2]: > 25 µM

Compound: Cn1cc2c(c1C(=O)Nc1ccc(F)c(F)c1)OC[C@@H](C(F)(F)F)NS2(=O)=O [Compound 61, (3S)—N-(3,4-difluorophenyl)-7-methyl-1,1-dioxo-3-(trifluoromethyl)-3,4-dihydro-2H-pyrrolo[3,4-b][1,4,5]oxathiazepine-6-carboxamide]
- EC50 [1, 3]: 0.074 µM
- CC50 at 4 days [2]: > 25 µM

Compound: CC[C@@H]1COc2c(cn(C)c2C(=O)Nc2ccc(F)c(F)c2)S(=O)(=O)N1 [Compound 20, (3R)—N-(3,4-difluorophenyl)-3-ethyl-7-methyl-1,1-dioxo-3,4-dihydro-2H-pyrrolo[3,4-b][1,4,5]oxathiazepine-6-carboxamide]
- EC50 [1, 3]: 0.058 µM
- CC50 at 4 days [2]: > 25 µM

Compound: CC(C)[C@H]1COc2c(cn(C)c2C(=O)Nc2ccc(F)c(F)c2)S(=O)(=O)N1 [Compound 22, (3S)—N-(3,4-difluorophenyl)-3-isopropyl-7-methyl-1,1-dioxo-3,4-dihydro-2H-pyrrolo[3,4-b][1,4,5]oxathiazepine-6-carboxamide]
- EC50 [1, 3]: 0.009 µM
- CC50 at 4 days [2]: > 25 µM

Compound: CN1CCC(C2COc3c(cn(C)c3C(=O)Nc3ccc(F)c(F)c3)S(=O)(=O)N2)CC1 (stereo not drawn) [Compound 76, N-(3,4-difluorophenyl)-7-methyl-3-(1-methyl-4-piperidyl)-1,1-dioxo-3,4-dihydro-2H-pyrrolo[3,4-b][1,4,5]oxathiazepine-6-carboxamide]
- EC50 [1, 3]: 0.22 µM
- CC50 at 4 days [2]: > 25 µM

Compound: Cc1cc(CC2(C)COc3c(cn(C)c3C(=O)Nc3ccc(F)c(F)c3)S(=O)(=O)N2)n(C)n1 (racemic) [Compound 175, N-(3,4-difluorophenyl)-3-[(2,5-dimethylpyrazol-3-yl)methyl]-3,7-dimethyl-1,1-dioxo-2,4-dihydropyrrolo[3,4-b][1,4,5]oxathiazepine-6-carboxamide]
- EC50 [1, 3]: 0.004 µM
- CC50 at 4 days [2]: > 25 µM

Compound: Cn1cc2c(c1C(=O)Nc1ccc(F)c(C(F)F)c1)C=CC1(COC1)NS2(=O)=O [Compound 139, N-[3-(difluoromethyl)-4-fluoro-phenyl]-7-methyl-1,1-dioxo-spiro[2H-pyrrolo[3,4-f]thiazepine-3,3′-oxetane]-6-carboxamide]
- EC50 [1, 3]: 0.016 µM
- CC50 at 4 days [2]: > 25 µM

Compound: Cc1cc(NC(=O)c2c3c(cn2C)S(=O)(=O)N[C@@H]([C@H](C)O)C=C3)ccc1F [Compound 99, (3R)—N-(4-fluoro-3-methyl-phenyl)-3-[(1S)-1-hydroxyethyl]-7-methyl-1,1-dioxo-2,3-dihydropyrrolo[3,4-f]thiazepine-6-carboxamide]
- EC50 [1, 3]: 0.004 µM
- CC50 at 4 days [2]: > 25 µM

Compound: C[C@@H](O)[C@H]1COc2c(cn(C)c2C(=O)Nc2ccc(F)c(F)c2)S(=O)(=O)N1 [Compound 33, (3R)—N-(3,4-difluorophenyl)-3-[(1R)-1-hydroxyethyl]-7-methyl-1,1-dioxo-3,4-dihydro-2H-pyrrolo[3,4-b][1,4,5]oxathiazepine-6-carboxamide]
- EC50 [1, 3]: 0.053 µM
- CC50 at 4 days [2]: > 25 µM

Compound: CC#CCC1COc2c(cn(C)c2C(=O)Nc2ccc(F)c(F)c2)S(=O)(=O)N1 (stereo not drawn) [Compound 205, 3-but-2-ynyl-N-(3,4-difluorophenyl)-7-methyl-1,1-dioxo-3,4-dihydro-2H-pyrrolo[3,4-b][1,4,5]oxathiazepine-6-carboxamide]
- EC50 ([1]; read-out: HBV-AVE-HepG2.117 EC50 (μM)): 0.05 µM
- CC50 at 4 days [2]: > 25 µM

Compound: CC1C=Cc2c(cn(C)c2C(=O)Nc2cc(F)c(F)c(F)c2)S(=O)(=O)N1 (single isomer, unassigned) [Compound 29, (*S)-3,7-dimethyl-1,1-dioxo-N-(3,4,5-trifluorophenyl)-2,3-dihydropyrrolo[3,4-f]thiazepine-6-carboxamide]
- EC50 [1, 3]: 0.005 µM
- CC50 at 4 days [2]: > 25 µM

Compound: C[C@@H](N1CC/C=C\c2c(cn(C)c2C(=O)Nc2ccc(F)c(F)c2)S1(=O)=O)C(F)(F)F [Compound 3, (5Z)—N-(3,4-difluorophenyl)-8-methyl-1,1-dioxo-2-[(1R)-2,2,2-trifluoro-1-methyl-ethyl]-3,4-dihydropyrrolo[3,4-g]thiazocine-7-carboxamide]
- EC50 [1, 3]: > 0.5 µM
- CC50 at 4 days [2]: > 25 µM

Compound: Cn1cc(C2COc3c(cn(C)c3C(=O)Nc3ccc(F)c(F)c3)S(=O)(=O)N2)cn1 (stereo not drawn) [Compound 43, N-(3,4-difluorophenyl)-7-methyl-3-(1-methylpyrazol-4-yl)-1,1-dioxo-3,4-dihydro-2H-pyrrolo[3,4-b][1,4,5]oxathiazepine-6-carboxamide]
- EC50 [1, 3]: 0.056 µM
- CC50 at 4 days [2]: > 25 µM

Compound: Cn1cc2c(c1C(=O)Nc1ccc(F)c(Cl)c1)OC[C@H](C(O)C1CC1)NS2(=O)=O (single isomer, unassigned) [Compound 207a, N-(3-chloro-4-fluoro-phenyl)-3-[cyclopropyl(hydroxy)methyl]-7-methyl-1,1-dioxo-3,4-dihydro-2H-pyrrolo[3,4-b][1,4,5]oxathiazepine-6-carboxamide]
- EC50 [1, 3]: 0.008 µM
- CC50 at 4 days [2]: > 25 µM

Compound: CO[C@H](C)[C@H]1COc2c(cn(C)c2C(=O)Nc2ccc(F)c(F)c2)S(=O)(=O)N1 [Compound 62, (3R)—N-(3,4-difluorophenyl)-3-[(1R)-1-methoxyethyl]-7-methyl-1,1-dioxo-3,4-dihydro-2H-pyrrolo[3,4-b][1,4,5]oxathiazepine-6-carboxamide]
- EC50 [1, 3]: 0.009 µM
- CC50 at 4 days [2]: > 25 µM

Compound: Cn1cc2c(c1C(=O)Nc1ccc(F)c(F)c1)OCC(C(O)c1ccccn1)NS2(=O)=O (stereo not drawn) [Compound 141a, N-(3,4-difluorophenyl)-3-[hydroxy(2-pyridyl)methyl]-7-methyl-1,1-dioxo-3,4-dihydro-2H-pyrrolo[3,4-b][1,4,5]oxathiazepine-6-carboxamide]
- EC50 [1, 3]: 0.03 µM
- CC50 at 4 days [2]: > 25 µM

Compound: Cn1cc2c(c1C(=O)Nc1ccc(F)c(C#N)c1)CCC(C(C)(O)C(F)(F)F)NS2(=O)=O (stereo not drawn) [Compound 117, N-(3-cyano-4-fluoro-phenyl)-7-methyl-1,1-dioxo-3-(2,2,2-trifluoro-1-hydroxy-1-methyl-ethyl)-2,3,4,5-tetrahydropyrrolo[3,4-f]thiazepine-6-carboxamide]
- EC50 [1, 3]: 0.01 µM
- CC50 at 4 days [2]: > 25 µM

Compound: C=C1c2c(cn(C)c2C(=O)Nc2ccc(F)c(C(F)F)c2)S(=O)(=O)NC1C(C)C (stereo not drawn) [compound 238]
- EC50 [1, 3]: 0.077 µM
- CC50 at 4 days [2]: > 25 µM

Compound: CC(C)[C@H]1COc2c(ccc(F)c2C(=O)Nc2ccc(F)c(F)c2)S(=O)(=O)N1 [Compound 44, (3S)—N-(3,4-difluorophenyl)-7-fluoro-3-isopropyl-1,1-dioxo-3,4-dihydro-2H-5,1λ^6,2-benzoxathiazepine-6-carboxamide]
- EC50 [1, 3]: 0.17 µM
- CC50 at 4 days [2]: > 25 µM

Compound: C[C@H](O)[C@H]1COc2c(cn(C)c2C(=O)Nc2ccc(F)c(C#N)c2)S(=O)(=O)N1 [Compound 65, (3R)—N-(3-cyano-4-fluoro-phenyl)-3-[(1S)-1-hydroxyethyl]-7-methyl-1,1-dioxo-3,4-dihydro-2H-pyrrolo[3,4-b][1,4,5]oxathiazepine-6-carboxamide]
- EC50 [1, 3]: 0.007 µM
- CC50 at 4 days [2]: > 25 µM

Compound: CC(C)[C@@H]1COc2c(ccc(F)c2C(=O)Nc2ccc(F)c(C#N)c2)S(=O)(=O)N1 [Compound 49, (3R)—N-(3-cyano-4-fluoro-phenyl)-7-fluoro-3-isopropyl-1,1-dioxo-3,4-dihydro-2H-5,1λ^6,2-benzoxathiazepine-6-carboxamide]
- EC50 [1, 3]: 0.31 µM
- CC50 at 4 days [2]: > 25 µM

Compound: Cn1cc2c(c1C(=O)Nc1ccc(F)c(C#N)c1)OC[C@H](Cc1cccnc1)NS2(=O)=O [Compound 71, (3S)—N-(3-cyano-4-fluoro-phenyl)-7-methyl-1,1-dioxo-3-(3-pyridylmethyl)-3,4-dihydro-2H-pyrrolo[3,4-b][1,4,5]oxathiazepine-6-carboxamide]
- EC50 [1, 3]: 0.003 µM
- CC50 at 4 days [2]: > 25 µM
